Experimental data: patent publication US12024544B2, “CCN3 and CCN3 peptides and analogs thereof for therapeutic use” (Rosalind Franklin University of Medicine & Science, priority 2010, dated 2024)
“Also recorded” adds a separate entry of the source. One block for each compound: values may come before it. Where a SMILES comes first, the peptide text is derived from it.

Key:
Type in all cases: cell-based
[1] = test system: human chronic myelogenous leukemia cells (K562); details: 10 nM
Experimental: Another potential use of the methods described in the invention is for the treatment of cancers. […] CCNp generated to mimic the effects of the function of CCN3 to prevent, reduce, stop or reverse progression of fibrosis/scarring may also serve to limit cancer growth. […] In untreated cells (Control) and those pre-incubated with quantities (approximately 10 nM) of a commercial recombinant CCN3 (rCCN3c), or full length CCN3 made in our laboratory, represented by several preparations rCCN3 8 (SEQ ID NO: 44), rCCN3 9 (SEQ ID NO: 44), rCCN3 10 (SEQ ID NO: 44), rCCN3 11 (SEQ ID NO: 44), or the peptides CCN p37 or CCN p38 were allowed to grow, then proliferation measured by the CellTiter-Glo® Luminescent Cell Viability Assay Control untreated cells, or cells (McCallum, L et al, CCN3: a key growth regulator in Chronic Myeloid Leukaemia, J Cell Commun Signal. 2009 June; 3(2): 115-124.). The latter is a homogeneous method of determining the number of viable cells in culture based on quantitation of the ATP present, an indicator of metabolically active cells. […] In comparison, CCNp37 produces 15-20% inhibition and CCNp38 approximately 40% inhibition of cell growth. Thus the activity was greater than the full-length CCN3.

[2] = test system: collagen type I promoter; experiment: collagen type I promoter (COL 1a2 promoter-luciferase) assay in TGF-beta stimulated mesangial cells
Experimental: In a second assay, the ability of the peptide to block the stimulation of collagen type I promoter by TGF-beta was tested. Collagen type I upregulation is a characteristic feature of fibrosis and is often used as an end point determination. TGF-beta is a well-established pro-fibrotic factor or cytokine that mesangial cells and other cells in the fibrotic response respond to by upregulating collagen and other matrix molecule production and accumulation. Several new anti-fibrotic therapies are under development that target the activity of TGF-beta. For the assays used in connection with the present invention, collagen promoter activity was measured as a rapid and early indicator of collagen-related fibrotic activity. The cells in culture were either unstimulated or stimulated by TGF-beta, both in the presence and absence of the selected peptides. If the peptides have inhibitory activity, the promoter activity under TGF-beta stimulation would be reduced to some value approaching the control, non-TGF-beta treated cells. The collagen promoter assay is based on the transfection of mesangial cells with a COL 1a2 promoter linked to luciferase. Therefore, when the promoter is stimulated it can be measured as luciferase units (Riser et al, CCN3 is a negative regulator of CCN2 and a novel endogenous inhibitor of the fibrotic pathway in an in vitro model of renal disease, American J Pathology, 174, 5, 2009). The level of collagen promoter activation (in arbitrary units), is based on a transfection efficiency control (CMV promoter activation).

[3] = test system: MMP-1; experiment: MMP-1 production by human skin fibroblasts; details: for reduction in PDGF stimulated MMP-1 production: 100 nM, FIG. 27
From the text: (§1) To test this we used a cell culture model of skin healing/scarring, which employed the use of primary human skin fibroblasts derived from foreskins collected post circumcision. These have been used extensively in the past to grown in culture and treated with agents that are known to drive wound healing and or scarring. We were also interested in a rare form of skin fibrosis/scarring that can lead to systemic disease and death known as nephrogenic systemic fibrosis (NSF). NSF is a complication of NMR diagnostics in renal impaired patients, where gadolinium (GAD), a heavy metal, is used as a contrast agent, but in some cases appears to deposit in skin. Although the mechanism for development of skin fibrosis and subsequent systemic disease is not yet completely understood, we have developed a model that has allowed elucidation of the probable pathway to skin fibrosis (Bhagavathula, N., M. K. Dame, M. DaSilva, W. Jenkins, M. N. Aslam, P. Perone and J. Varani (2010)). “Fibroblast response to gadolinium: role for platelet-derived growth factor receptor.” Invest Radiol 45(12): 769-777). This disease is characterized as a hyperproliferative disease, and in our model it was shown that PDGF produced by resident skin fibroblasts are stimulated by GAD to increase their production of PDGF which acts to induce proliferation and the increased production of MMPs, regulators of ECM breakdown and thus turnover, including the major MMP, MMP-1. At the same time tissue inhibitors of MMPs (TIMPs) are also affected by exposure to GAD. […] It appears that local fibroblasts then respond to this increased TGF-beta by increasing their production of ECM, including predominantly collagen type 1.
(§2) We examined the role of CCN3 and CCNp in fibroproliferative/fibrotic responses in human dermal fibroblasts exposed to Omniscan, one of the gadolinium-based contrast agents associated with development of nephrogenic systemic fibrosis. These studies were carried out as we have previously described (Riser, B. L., N. Bhagavathula, P. Perone, K. Garchow, Y. Xu, G. J. Fisher, F. Najmabadi, D. Attili and J. Varani (2012)). “Gadolinium-induced fibrosis is counter-regulated by CCN3 in human dermal fibroblasts: a model for potential treatment of nephrogenic systemic fibrosis.” J Cell Commun Signal 6(2): 97-105.). In our studies, human dermal fibroblasts were exposed to Omniscan; or to PDGF and TGF-β1 as controls. Cellular proliferation was assessed along with MMP-1 (by ELISA and gelatin zymography), TIMP-1 (by ELISA) and COL1 (by ELISA) in the absence and presence of CCN3 and CCNp. CCN3 and CCNp38 was added to cells at 10 nM concentration and at the same time as PDGF. In parallel, CCN3 production was assessed in control and Omniscan-treated cells. In most case the results shown (each bar) are the mean of 3-5 separate experiments, using fibroblasts from different donors. CCN3 was produced in our laboratory from the human embryonic kidney cell line (HEK-293) transfected with the complete human CCN3 gene, and producing an approximate 55 kDa, full-length CCN3 product. A second source of CCN3 was obtained from Pepro Tech Corporation (Rocky Hill, NJ) and is produced in a prokaryote cell line.
(§3) Next we created and tested for efficacy, additional CCNp including those with the cysteines intact (native sequence) from CCNp37 and CCNp38 and those that were modified by either shortening the peptide by 1 or 2 amino acids or lengthening by one amino acid. These agents were added to human skin fibroblasts in increasing concentrations from 1 nM to 100 nM and compared to the equal concentration of CCN3 (SEQ. ID. NO: 67). They were added just prior to the addition of either TGF-beta or PDGF, depending on the experiment.

[4] = test system: TIMP-1; experiment: TIMP-1 production by human skin fibroblasts
From the text: as §1, §2
Next we created and tested for efficacy, additional CCNp including those with the cysteines intact (native sequence) from CCNp37 and CCNp38 and those that were modified by either shortening the peptide by 1 or 2 amino acids or lengthening by one amino acid. […]

[5] = test system: pro-collagen type 1; experiment: pro-collagen type 1 production by human skin fibroblasts
From the text: To test this we used a cell culture model of skin healing/scarring, which employed the use of primary human skin fibroblasts derived from foreskins collected post circumcision. These have been used extensively in the past to grown in culture and treated with agents that are known to drive wound healing and or scarring. We were also interested in a rare form of skin fibrosis/scarring that can lead to systemic disease and death known as nephrogenic systemic fibrosis (NSF). NSF is a complication of NMR diagnostics in renal impaired patients, where gadolinium (GAD), a heavy metal, is used as a contrast agent, but in some cases appears to deposit in skin. Although the mechanism for development of skin fibrosis and subsequent systemic disease is not yet completely understood, we have developed a model that has allowed elucidation of the probable pathway to skin fibrosis (Bhagavathula, N., M. K. Dame, M. DaSilva, W. Jenkins, M. N. Aslam, P. Perone and J. Varani (2010)). “Fibroblast response to gadolinium: role for platelet-derived growth factor receptor.” Invest Radiol 45(12): 769-777). This disease is characterized as a hyperproliferative disease, and in our model it was shown that PDGF produced by resident skin fibroblasts are stimulated by GAD to increase their production of PDGF which acts to induce proliferation and the increased production of MMPs, regulators of ECM breakdown and thus turnover, including the major MMP, MMP-1. At the same time tissue inhibitors of MMPs (TIMPs) are also affected by exposure to GAD. […]
We examined the role of CCN3 and CCNp in fibroproliferative/fibrotic responses in human dermal fibroblasts exposed to Omniscan, one of the gadolinium-based contrast agents associated with development of nephrogenic systemic fibrosis. […] Cellular proliferation was assessed along with MMP-1 (by ELISA and gelatin zymography), TIMP-1 (by ELISA) and COL1 (by ELISA) in the absence and presence of CCN3 and CCNp. […] In parallel, CCN3 production was assessed in control and Omniscan-treated cells. […]

[6] = test system: human skin fibroblasts; experiment: human skin fibroblast proliferation
From the text: as §1, §2, §3

inhibition of TGF-β-stimulated collagen promoter activity ([2]; added 24-hours prior to TGF-β): able to produce some activity | inhibition of TGF-β-stimulated collagen promoter activity ([2]; added 24-hours prior to TGF-β, listed as Peptide 37): also present (although to a lower level) | inhibition of TGF-β-stimulated collagen promoter activity ([2]; added just prior to TGF-β): most effective
Compound: CC(C)[C@H](NC(=O)CNC(=O)[C@H](CO)NC(=O)[C@@H](N)Cc1ccccc1)C(=O)N[C@@H](CO)C(=O)N[C@@H](CO)C(=O)N[C@@H](CC(=O)O)C(=O)NCC(=O)N[C@@H](CCCNC(=N)N)C(=O)N[C@@H](CO)C(=O)N[C@@H](CO)C(=O)N[C@H](C(=O)N1CCC[C@H]1C(=O)N[C@@H](Cc1c[nH]cn1)C(=O)O)[C@@H](C)O [CCNp37] (H-FSGVSSDGRSSTPH-OH)
reduction in growth and/or viability (inhibition of cell growth) [1]: 15-20% | inhibition of TGF-β-stimulated collagen promoter activity ([2]; added just prior to TGF-β, listed as Peptide 37): ability to totally block TGF-β-stimulated collagen promoter activity | inhibition of TGF-β-stimulated collagen promoter activity ([2]; peptide screen, FIG. 8): reduce collagen promoter stimulation by TGF-β; also recorded: inhibition of TGF-beta stimulated collagen promoter activity; also recorded: more potent than CCNp38

Compound: CC[C@H](C)[C@H](NC(=O)CNC(=O)[C@@H](NC(=O)[C@H](CCC(N)=O)NC(=O)[C@H](CC(N)=O)NC(=O)[C@H](CC(N)=O)NC(=O)[C@@H]1CCCN1C(=O)[C@H](CC(=O)O)NC(=O)[C@H](C)NC(=O)[C@H](CO)NC(=O)[C@H](CCCNC(=N)N)NC(=O)[C@H](CC(=O)O)NC(=O)[C@@H](N)CO)[C@@H](C)O)C(=O)N[C@@H](CO)C(=O)O [CCNp38] (H-SDRSADPNNQTGIS-OH)
reduction in growth and/or viability (inhibition of cell growth) [1]: approximately 40% | inhibition of TGF-β-stimulated collagen promoter activity ([2]; 500 ng/mL): able to inhibit collagen promoter activity | inhibition of TGF-β-stimulated collagen promoter activity ([2]; peptide screen, FIG. 8): reduce collagen promoter stimulation by TGF-β

Compound: CCNp37-15: Human or mouse analog with native cysteines replaced with serines and without PH on C-terminal end, SEQ. ID. No. 55 (FSGVSSDGRSST)
block of PDGF stimulated MMP-1 production, comparison of modifications ([3]; 1 nM to 100 nM, FIGS. 25-27): less effective

Compound: CCNp38-3: Human analog CCNp38 with native cysteines replaced with serines, SEQ. ID. No. 56 (SDRSADPSNQTGIS)
reduction in PDGF stimulated MMP-1 production [3]: about 60% | block of PDGF-induced increase in MMP-1 activity ([3]; PDGF, 10 nM, FIG. 17): works better than CCN3 protein; also recorded: works as well or better than CCN3 protein | effect on MMP-1 with TGF-beta ([3]; TGF-beta (no stimulating effect), FIG. 18): no effect | block of PDGF-induced increase in TIMP-1 production ([4]; PDGF, 10 nM, FIG. 19): neither CCNp38-3 (Seq. ID. No. 56) nor CCN3 (SEQ. ID. No. 67) is able to block or reduce the increase in TIMP-1 production | effect on TIMP-1 production with TGF-beta ([4]; TGF-beta (fails to stimulate), FIG. 20): neither CCNp38-3 nor CCN3 have an effect; also recorded: neither CCNp38-3 or CCN3 have an effect | reduction of TGF-beta-stimulated pro-collagen type 1 production ([5]; 1-100 nM, FIGS. 31-33): as effective as CCN3 | block of TGF-beta-induced increase in pro-collagen production ([5]; TGF-beta, 10 nM, FIG. 21): completely block the increase | block of PDGF-stimulated fibroblast proliferation ([6]; PDGF, 10 nM, FIG. 15): equally well; also recorded: this stimulation is blocked | effect on baseline cell growth ([6]; TGF-beta (does not stimulate proliferation), FIG. 16): neither CCN3 (SEQ. ID. No. 67) nor CCNp38-3 (Seq. ID. No. 56) has an effect on baseline cell growth

Compound: CCNp38-4: Human native CCNp38, SEQ. ID. No. 50 (CDRSADPSNQTGIC; listed as Homo sapiens)
reduction in PDGF stimulated MMP-1 production [3]: about 60% | inhibition of PDGF-stimulated proliferation, comparison of modifications ([6]; 1 nM to 100 nM, FIGS. 22-24): inhibited proliferation stimulated by PDGF, but was not as effective as the substituted form
